In patent USH1209H, “No-carrier-added (18F)-N-methylspiroperidol” (The United States of America as represented by the United …, priority 1985, dated 1993):

What was measured:
dopamine receptors = experiment: PETT baboon studies: striatum and cerebellum radioactivity after i.v. [^18 F]-N-methylspiroperidol, with (-)- or (+)-butaclamol pretreatment; conditions: for effect of butaclamol pretreatment on striatal distribution of [^18 F]-N-methylspiroperidol: 0.5 mg/kg i.v. pretreatment
Text: (§1) A young adult (12 kg) female baboon (Papio anubis) was anesthesized initially with ketamine and subsequently maintained under halothane/nitrous oxide anesthesia for two PETT studies. […] Pett scans were made continually for 4 hrs from the time of radioisotope injection.

[1] = Baboon plasma analyses (total plasma radioactivity clearance and unchanged radioligand); conditions: baboon, plasma, plasma radioactivity due to unaltered radioligand, baboon plasma, 10 mins after injection
Text: as §1
Blood was sampled from the femoral artery at initial intervals of 5 secs. Aliquots of plasma were counted to determine the total plasma radioactivity of clearance curves.

[2] = Metabolic stability and uptake in rat brain (striatum, cerebellum); type: in vivo, rat (male BNL R strain); conditions: rat brain
dopamine receptor = conditions: cited from earlier work; for retention by the striatum compared with [^18 F]haloperidol: region of high dopamine receptor density; for prevention of striatal retention of [^18 F]spiroperidol and [^18 F]benperidol: prior administration of butaclamol enantiomer

| Compound | crossing of the blood brain barrier compared with [^18 F]haloperidol (dopamine receptor; in vivo) | retention by the striatum compared with [^18 F]haloperidol (dopamine receptor) | effect of butaclamol pretreatment on striatal distribution of [^18 F]-N-methylspiroperidol (dopamine receptors) | prevention of striatal retention of [^18 F]spiroperidol and [^18 F]benperidol (dopamine receptor) | also measured |
| --- | --- | --- | --- | --- | --- |
| O=C(CCCN1CCC2(CC1)C(=O)NCN2c1ccccc1)c1ccc([18F])cc1 [[^18 F]spiroperidol] | to a lesser extent than [^18 F]haloperidol | retained to a greater degree by the striatum |  |  | specifically bound component of radioactivity in the striatum (striatum minus cerebellum) (dopamine receptors; 4 hrs after injection): still increasing at 4 hrs after injection; remaining at 10 min [1]: 72%; metabolism in the rat brain [2]: very little metabolism; uptake into the brain (dopamine receptor; baboons): 0.5-1.0 % of the injected dose; clearance from the striatal areas (dopamine receptor; up to 8 hrs. after injection): no clearance |
| CC(C)(C)C1(O)CCN2CC3c4ccccc4CCc4cccc(c43)C2C1 (single isomer, unassigned; (-)) [(-)-butaclamol, reference compound] |  |  | normal distribution of radioligand | not |  |
| O=C(CCCN1CCC(n2c(=O)[nH]c3ccccc32)CC1)c1ccc([18F])cc1 [[^18 F]benperidol] | to a lesser extent than [^18 F]haloperidol | retained to a greater degree by the striatum |  |  |  |
| O=C(CCCN1CCC(O)(c2ccc(Cl)cc2)CC1)c1ccc(F)cc1 [haloperidol] |  |  |  |  | brain uptake compared with spiroperidol or benperidol (dopamine receptor; in vivo): higher than spiroperidol or benperidol; egress from the brain (dopamine receptor; in vivo): rapid egress; nonspecific binding (dopamine receptor; in vivo): relatively high nonspecific binding |
| CC(C)(C)C1(O)CCN2CC3c4ccccc4CCc4cccc(c43)C2C1 (single isomer, unassigned; (+)) [(+)-butaclamol, reference compound] |  |  | stereospecific blocking of dopamine receptors in the striatum | prevented |  |
